Laboratory results as given in article PMC5736629, “Allosteric modulation of protein-protein interactions by individual lipid binding events” (Nature Communications, 2017).
Like-named read-outs stand apart in the source and are kept apart here.

Tests used:
AmtB–GlnK complex = target: T1, AmtB–GlnK complex (Escherichia coli, UniProt P69681); experiment: Native MS lipid titration, lipid binding to AmtB–GlnK (equilibrium-coupled binding model); conditions: 50 µM ADP, 298 K
T1 construct: pelB signal peptide (N, cleaved yes); 10x His-tag (N, cleaved yes); made in house; host or cells: AmtB: Escherichia coli C41(DE3), pET15b; stGlnK: Escherichia coli ArcticExpress (DE3) RIL, pET28b
Experimental: (§1) A stock of ADP was prepared by dissolving the ammonium salt form of ADP in water followed by adjusting the pH with ammonium hydroxide to 7.0. Serial dilutions into MS buffer (200 mM ammonium acetate, 0.5% C8E4, and pH adjusted to 7.4 with ammonium hydroxide) supplemented with 5 mM BME was performed to prepare ADP at certain concentrations. Phospholipids were prepared as previously described. In brief, stock solutions of each phospholipid were resuspended in chloroform, aliqouted, and chloroform was removed by a steady stream on nitrogen gas. Lipid films were placed under vacuum overnight to prepare to resuspend in MS buffer supplemented with 5 mM 2-mercaptoethanol. Phospholipid concentration was determined by phosphorus analysis.

AmtB = target: T2, AmtB (Escherichia coli, UniProt P69681); experiment: Native MS lipid titration, lipid binding to AmtB (equilibrium-coupled binding model); conditions: 50 µM ADP, 298 K
T2 construct: pelB signal peptide (N, cleaved yes); 10x His-tag (N, cleaved yes); made in house; host or cells: Escherichia coli C41(DE3), pET15b
Experimental: as §1

AmtB–GlnK interaction = target: T3, AmtB–GlnK interaction (Escherichia coli, UniProt P69681); experiment: Native MS lipid titration, GlnK binding to apo or lipid-bound AmtB; coupling factors (allosteric modulation); conditions: for Kd: 50 µM ADP, 298 K; for Coupling factor a1: first bound lipid; for allosteric modulation of AmtB–GlnK (from coupling factors) / effect of lipid-binding events on K D,ALnG: result in words; for Coupling factor a2: second bound lipid; for Coupling factor a3: third bound lipid; for increase in the coupling factor per lipid-binding event: linear fit to the coupling factors as a function of bound lipid
T3 construct: pelB signal peptide (N, cleaved yes); 10x His-tag (N, cleaved yes); made in house; host or cells: AmtB: Escherichia coli C41(DE3), pET15b; stGlnK: Escherichia coli ArcticExpress (DE3) RIL, pET28b
Experimental: as §1

[1] = KD,AGL1, first lipid binding to AmtB–GlnK
[2] = KD,AGL2, second lipid binding to AmtB–GlnK
[3] = KD,AGL3, third lipid binding to AmtB–GlnK
[4] = KD,AL1, first lipid binding to AmtB
[5] = KD,AL2, second lipid binding to AmtB
[6] = KD,AL3, third lipid binding to AmtB
[7] = KD,AG, GlnK binding apo AmtB, from global fit of the titration with the named lipid
[8] = KD,AL2G, GlnK binding AmtB bound to 2 lipids
[9] = KD,AL3G, GlnK binding AmtB bound to 3 lipids
[10] = KD,ALG, GlnK binding AmtB bound to 1 lipid

T2 sequence (P69681 23-428): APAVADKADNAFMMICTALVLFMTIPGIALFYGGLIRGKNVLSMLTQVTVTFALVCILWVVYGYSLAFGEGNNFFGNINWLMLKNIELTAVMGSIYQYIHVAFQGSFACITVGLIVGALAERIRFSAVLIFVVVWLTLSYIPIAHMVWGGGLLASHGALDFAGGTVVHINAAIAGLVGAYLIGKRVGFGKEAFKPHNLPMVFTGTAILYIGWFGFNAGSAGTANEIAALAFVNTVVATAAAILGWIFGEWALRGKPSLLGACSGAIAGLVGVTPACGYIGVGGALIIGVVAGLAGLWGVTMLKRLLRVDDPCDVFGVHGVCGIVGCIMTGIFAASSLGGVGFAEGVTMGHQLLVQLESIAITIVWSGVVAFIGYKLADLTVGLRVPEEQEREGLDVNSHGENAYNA
T3 sequence (P0AC55 whole entry Y51F): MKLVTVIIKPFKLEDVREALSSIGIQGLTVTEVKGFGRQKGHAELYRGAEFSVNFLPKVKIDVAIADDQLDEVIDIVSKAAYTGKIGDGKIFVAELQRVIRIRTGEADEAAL
T3 sequence (P69681 23-428): as the sequence (P69681 23-428) above
T1 sequence (P0AC55 whole entry Y51F): as the sequence (P0AC55 whole entry Y51F) above
T1 sequence (P69681 23-428): as the sequence (P69681 23-428) above

Compound	Kd (AmtB–GlnK complex; [1]) [µM]	Kd (AmtB–GlnK complex; [2]) [µM]	Kd (AmtB–GlnK complex; [3]) [µM]	Kd (AmtB; [4]) [µM]	Kd (AmtB; [5]) [µM]	Kd (AmtB; [6]) [µM]	Kd (AmtB–GlnK interaction; [7]) [µM]	Kd (AmtB–GlnK interaction; [8]) [µM]	Kd (AmtB–GlnK interaction; [9]) [µM]	Kd (AmtB–GlnK interaction; [10]) [µM]	Coupling factor a1 (AmtB–GlnK interaction)	allosteric modulation of AmtB–GlnK (from coupling factors) (AmtB–GlnK interaction)	effect of lipid-binding events on K D,ALnG (AmtB–GlnK interaction)	Coupling factor a2 (AmtB–GlnK interaction)	Coupling factor a3 (AmtB–GlnK interaction)	also measured
CCCCCCCC/C=C\CCCCCCCC(=O)O[C@H](COC(=O)CCCCCCCCCCCCCCC)COP(=O)(O)O [POPA]	10 ± 0.31	19.8 ± 0.58	26.2 ± 2.19	8.11 ± 0.41	18.1 ± 1.18	24.7 ± 2.44	0.517 ± 0.0463	0.707 ± 0.0945	0.75 ± 0.0992	0.644 ± 0.0735	0.81 ± 0.02	slight negative allosteric modulation	each binding event weakening the molecular interaction between AmtB and GlnK	0.92 ± 0.04	0.94 ± 0.04	
CCCCCCCC/C=C\CCCCCCCC(=O)O[C@H](COC(=O)CCCCCCCCCCCCCCC)COP(=O)([O-])OCC[N+](C)(C)C [POPC]	18.9 ± 1.36	40.3 ± 3.92	59.5 ± 17.9	29.2 ± 5.99	68.3 ± 4.81	104 ± 7.56	0.486 ± 0.0325	0.192 ± 0.0112		0.345 ± 0.0822	1.52 ± 0.23		decrease in K D,ALnG with each consecutive binding event	1.76 ± 0.31	2.50 ± 0.80	
CCCCCCCC/C=C\CCCCCCCC(=O)O[C@H](COC(=O)CCCCCCCCCCCCCCC)COP(=O)(O)OCCN [POPE]	16.3 ± 0.4	33.6 ± 1.24	47.7 ± 7.02	21.1 ± 0.27	55.3 ± 9.22	96.2 ± 27	0.504 ± 0.0616	0.245 ± 0.0372	0.137 ± 0.0482	0.391 ± 0.0593	1.30 ± 0.04	positive allosteric modulation	decrease in K D,ALnG with each consecutive binding event	1.63 ± 0.24	2.04 ± 0.37	increase in the coupling factor per lipid-binding event (AmtB–GlnK interaction): 0.4
CCCCCCCC/C=C\CCCCCCCC(=O)O[C@H](COC(=O)CCCCCCCCCCCCCCC)COP(=O)(O)OCC(O)CO (stereo partly shown) [POPG]	12.04 ± 0.06	25.4 ± 1.11	34.3 ± 3.4	13.5 ± 0.73	33.3 ± 6.39	56.7 ± 11.8	0.54 ± 0.0267	0.396 ± 0.0754	0.313 ± 0.162	0.485 ± 0.0356	1.12 ± 0.06	positive allosteric modulation	decrease in K D,ALnG with each consecutive binding event	1.30 ± 0.21	1.74 ± 0.46	increase in the coupling factor per lipid-binding event (AmtB–GlnK interaction): 0.3
CCCCCCCC/C=C\CCCCCCCC(=O)O[C@H](COC(=O)CCCCCCCCCCCCCCC)COP(=O)(O)OC[C@H](N)C(=O)O [POPS]	9.18 ± 0.6	19.9 ± 0.36	26.7 ± 1.82	10.5 ± 0.97	21.8 ± 1.97	30.4 ± 4.97	0.499 ± 0.0347	0.405 ± 0.0395	0.363 ± 0.0372	0.446 ± 0.0644	1.15 ± 0.09	neutral allosteric modulation	little effect on K D,ALnG	1.09 ± 0.08	1.13 ± 0.10	
CCCCCCCC/C=C\CCCCCCCC(=O)O[C@H](COC(=O)CCCCCCCCCCCCCCCCC)COP(=O)(O)OCCN [SOPE]	14.5 ± 1.28	2.85 ± 2.32	45.2 ± 7.56	16.4 ± 1.39	46.6 ± 9.46	73.6 ± 22	0.528 ± 0.0448	0.321 ± 0.0944	0.215 ± 0.0607	0.482 ± 0.0919	1.16 ± 0.19			1.60 ± 0.19	1.57 ± 0.25	
CCCCCCCC/C=C\CCCCCCCC(=O)OC[C@H](COP(=O)(O)OCC(O)COP(=O)(O)OC[C@@H](COC(=O)CCCCCCC/C=C\CCCCCCCC)OC(=O)CCCCCCC/C=C\CCCCCCCC)OC(=O)CCCCCCC/C=C\CCCCCCCC (stereo partly shown) [TOCDL, 1,1′,2,2′-tetraoleoyl-cardiolipin]											1.17 ± 0.09	neutral allosteric modulation	little effect on K D,ALnG	1.03 ± 0.06	1.11 ± 0.15	Kd (AmtB–GlnK complex; read-out: KD,AGL1, first lipid binding to AmtB–GlnK): 17 ± 0.17 µM; Kd (AmtB–GlnK complex; read-out: KD,AGL2, second lipid binding to AmtB–GlnK): 29.3 ± 1.42 µM; Kd (AmtB–GlnK complex; read-out: KD,AGL3, third lipid binding to AmtB–GlnK): 29.5 ± 1.68 µM; Kd (AmtB; read-out: KD,AL1, first lipid binding to AmtB): 19.9 ± 1.65 µM; Kd (AmtB; read-out: KD,AL2, second lipid binding to AmtB): 30.2 ± 2.05 µM; Kd (AmtB; read-out: KD,AL3, third lipid binding to AmtB): 33.1 ± 6.01 µM; Kd (AmtB–GlnK interaction; read-out: KD,AG, GlnK binding apo AmtB, from global fit of the titration with the named lipid): 0.517 ± 0.0312 µM; Kd (AmtB–GlnK interaction; read-out: KD,AL2G, GlnK binding AmtB bound to 2 lipids): 0.443 ± 0.0689 µM; Kd (AmtB–GlnK interaction; read-out: KD,AL3G, GlnK binding AmtB bound to 3 lipids): 0.414 ± 0.0776 µM; Kd (AmtB–GlnK interaction; read-out: KD,ALG, GlnK binding AmtB bound to 1 lipid): 0.45 ± 0.0561 µM
